Experiment [1] deals with T1, Tyrosine-protein kinase TXK (Homo sapiens) (UniProt P42681).
T1 sequence (whole entry): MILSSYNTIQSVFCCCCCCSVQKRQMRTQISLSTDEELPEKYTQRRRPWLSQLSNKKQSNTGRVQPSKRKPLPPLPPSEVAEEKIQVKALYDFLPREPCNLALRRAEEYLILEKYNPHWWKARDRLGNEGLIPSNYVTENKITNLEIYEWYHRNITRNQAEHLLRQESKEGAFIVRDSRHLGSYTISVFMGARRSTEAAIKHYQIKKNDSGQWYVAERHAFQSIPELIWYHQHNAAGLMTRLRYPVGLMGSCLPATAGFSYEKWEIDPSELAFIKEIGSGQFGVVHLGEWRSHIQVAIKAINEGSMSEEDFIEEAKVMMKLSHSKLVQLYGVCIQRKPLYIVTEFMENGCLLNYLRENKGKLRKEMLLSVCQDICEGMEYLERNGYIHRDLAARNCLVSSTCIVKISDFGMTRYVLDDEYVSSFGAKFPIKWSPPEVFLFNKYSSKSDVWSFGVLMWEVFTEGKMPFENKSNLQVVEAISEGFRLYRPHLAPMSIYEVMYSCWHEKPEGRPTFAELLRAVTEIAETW
The note with it: at 10 µM.

Experiment [2] deals with T2, Membrane-associated tyrosine- and threonine-specific cdc2-inhibitory kinase (Homo sapiens) (UniProt Q99640).
T2 sequence (whole entry): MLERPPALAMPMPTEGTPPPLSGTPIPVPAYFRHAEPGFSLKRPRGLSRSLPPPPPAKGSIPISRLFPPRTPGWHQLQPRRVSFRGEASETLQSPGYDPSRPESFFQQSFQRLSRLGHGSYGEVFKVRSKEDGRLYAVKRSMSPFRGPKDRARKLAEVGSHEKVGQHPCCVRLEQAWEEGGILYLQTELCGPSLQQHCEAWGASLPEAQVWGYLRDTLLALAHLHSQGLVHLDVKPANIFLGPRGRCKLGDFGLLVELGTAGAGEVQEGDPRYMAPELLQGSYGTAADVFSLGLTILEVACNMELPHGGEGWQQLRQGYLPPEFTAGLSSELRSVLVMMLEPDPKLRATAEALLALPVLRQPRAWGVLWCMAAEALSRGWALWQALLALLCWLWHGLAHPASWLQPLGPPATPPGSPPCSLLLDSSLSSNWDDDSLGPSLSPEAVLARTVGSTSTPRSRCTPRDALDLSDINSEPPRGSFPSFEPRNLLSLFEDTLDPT
Briefly: Selectivity interaction (KinomeScan (DiscoverX)) EUB0000655a PKMYT1. The note with it: at 10 µM.

Experiment [3] concerns the target Tyrosine-protein kinase Fes/Fps (Homo sapiens) (UniProt P07332). The experiment can be described thus: Selectivity interaction (KinomeScan (DiscoverX)) EUB0001079a FES. Particulars: at 1 µM.
The target in experiment [4] is T3, Phosphorylase b kinase gamma catalytic chain, liver/testis isoform (Homo sapiens) (UniProt P15735).
T3 sequence (whole entry): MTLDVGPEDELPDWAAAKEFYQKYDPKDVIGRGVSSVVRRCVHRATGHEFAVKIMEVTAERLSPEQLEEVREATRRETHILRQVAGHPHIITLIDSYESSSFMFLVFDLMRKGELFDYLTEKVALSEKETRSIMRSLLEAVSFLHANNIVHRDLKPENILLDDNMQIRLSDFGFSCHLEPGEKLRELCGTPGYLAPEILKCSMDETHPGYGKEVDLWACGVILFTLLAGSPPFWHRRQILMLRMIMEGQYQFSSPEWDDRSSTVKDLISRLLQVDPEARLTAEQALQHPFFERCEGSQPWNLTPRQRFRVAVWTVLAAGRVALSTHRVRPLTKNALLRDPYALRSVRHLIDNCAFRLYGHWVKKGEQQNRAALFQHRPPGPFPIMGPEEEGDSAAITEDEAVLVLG
The experiment can be described thus: Selectivity interaction (KinomeScan (DiscoverX)) EUB0001619a PHKG2. The note with it: at 1 µM.

The target in experiment [5] is Tyrosine-protein kinase Yes (Homo sapiens) (UniProt P07947). Briefly: Selectivity interaction (Millipore kinase profiler) EUB0000124b YES1. Particulars: at 10 µM.
The target of experiment [6] is T4, Testis-specific serine/threonine-protein kinase 1 (Homo sapiens) (UniProt Q9BXA7).
T4 sequence (whole entry): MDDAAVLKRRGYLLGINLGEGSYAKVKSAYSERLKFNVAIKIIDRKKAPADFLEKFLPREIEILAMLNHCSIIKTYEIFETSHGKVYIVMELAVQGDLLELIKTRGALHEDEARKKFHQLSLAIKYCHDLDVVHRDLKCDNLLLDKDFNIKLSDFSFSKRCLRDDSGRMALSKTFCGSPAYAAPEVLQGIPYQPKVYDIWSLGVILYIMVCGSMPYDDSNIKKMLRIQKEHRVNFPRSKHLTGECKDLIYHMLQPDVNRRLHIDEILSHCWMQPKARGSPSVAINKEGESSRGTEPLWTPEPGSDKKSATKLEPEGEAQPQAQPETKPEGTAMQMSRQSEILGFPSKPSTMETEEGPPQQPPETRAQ
Briefly: Selectivity interaction (KinomeScan (DiscoverX)) EUB0000695a TSSK1B. Particulars: at 100 nM.

Experiment [7] concerns the target Tyrosine-protein kinase Fyn (Homo sapiens) (UniProt P06241). Briefly: Selectivity interaction (KinomeScan (DiscoverX)) EUB0000092b FYN. The note with it: at 10 µM.
In experiment [8] the target is Tyrosine-protein kinase Fes/Fps (Homo sapiens) (UniProt P07332). The experiment can be described thus: Selectivity interaction (Kinase panel (DSF assay)) EUB0001559a FES. (Differential scanning fluorimetry follows unfolding on heating by fluorescence.)
The target in experiment [9] is SRSF protein kinase 3 (Homo sapiens) (UniProt Q9UPE1). Briefly: Selectivity interaction (KinomeScan (DiscoverX)) EUB0000618a SRPK3. The note with it: at 10 µM.
Sequence of SRSF protein kinase 3 (Homo sapiens) (Q9UPE1 whole entry): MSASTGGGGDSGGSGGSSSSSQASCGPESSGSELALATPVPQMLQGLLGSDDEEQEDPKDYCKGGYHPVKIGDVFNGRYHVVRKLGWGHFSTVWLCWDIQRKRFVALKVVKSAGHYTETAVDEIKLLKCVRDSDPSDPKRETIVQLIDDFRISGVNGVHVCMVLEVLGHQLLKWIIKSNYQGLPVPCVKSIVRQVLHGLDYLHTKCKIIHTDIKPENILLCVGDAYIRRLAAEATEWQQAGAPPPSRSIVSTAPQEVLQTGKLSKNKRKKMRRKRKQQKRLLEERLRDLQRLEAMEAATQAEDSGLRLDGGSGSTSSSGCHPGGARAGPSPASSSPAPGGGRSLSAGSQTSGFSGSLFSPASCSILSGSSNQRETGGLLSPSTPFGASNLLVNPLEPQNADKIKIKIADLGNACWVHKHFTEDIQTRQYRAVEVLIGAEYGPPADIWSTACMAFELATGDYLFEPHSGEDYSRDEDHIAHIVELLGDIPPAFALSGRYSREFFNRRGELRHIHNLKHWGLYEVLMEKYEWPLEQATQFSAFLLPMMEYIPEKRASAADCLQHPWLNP

Sequence of Tyrosine-protein kinase Fes/Fps (Homo sapiens) (P07332 whole entry, canonical isoform): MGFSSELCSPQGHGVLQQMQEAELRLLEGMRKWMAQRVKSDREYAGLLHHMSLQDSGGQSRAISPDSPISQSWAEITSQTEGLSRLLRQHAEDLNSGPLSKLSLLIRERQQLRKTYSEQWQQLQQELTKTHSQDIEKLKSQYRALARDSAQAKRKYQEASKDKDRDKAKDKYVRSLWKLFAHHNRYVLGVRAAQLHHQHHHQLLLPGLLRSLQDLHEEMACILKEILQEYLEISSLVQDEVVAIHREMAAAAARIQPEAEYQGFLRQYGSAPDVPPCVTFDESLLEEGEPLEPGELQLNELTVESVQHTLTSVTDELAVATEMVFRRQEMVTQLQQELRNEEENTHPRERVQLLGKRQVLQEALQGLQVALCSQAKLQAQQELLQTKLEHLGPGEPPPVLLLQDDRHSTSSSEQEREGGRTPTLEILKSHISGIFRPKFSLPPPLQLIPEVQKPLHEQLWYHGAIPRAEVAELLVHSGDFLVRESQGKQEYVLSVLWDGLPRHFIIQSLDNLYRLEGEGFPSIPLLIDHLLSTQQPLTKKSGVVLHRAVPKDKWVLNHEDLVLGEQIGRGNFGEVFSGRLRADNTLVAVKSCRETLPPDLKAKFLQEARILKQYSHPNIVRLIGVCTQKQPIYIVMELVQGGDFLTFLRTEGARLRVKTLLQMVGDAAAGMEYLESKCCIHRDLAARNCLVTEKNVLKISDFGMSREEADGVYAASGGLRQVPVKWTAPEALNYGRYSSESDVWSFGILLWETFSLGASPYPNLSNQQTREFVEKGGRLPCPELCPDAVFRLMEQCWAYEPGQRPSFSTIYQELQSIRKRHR
Sequence of Tyrosine-protein kinase Fyn (Homo sapiens) (P06241 2-537 limits assumed): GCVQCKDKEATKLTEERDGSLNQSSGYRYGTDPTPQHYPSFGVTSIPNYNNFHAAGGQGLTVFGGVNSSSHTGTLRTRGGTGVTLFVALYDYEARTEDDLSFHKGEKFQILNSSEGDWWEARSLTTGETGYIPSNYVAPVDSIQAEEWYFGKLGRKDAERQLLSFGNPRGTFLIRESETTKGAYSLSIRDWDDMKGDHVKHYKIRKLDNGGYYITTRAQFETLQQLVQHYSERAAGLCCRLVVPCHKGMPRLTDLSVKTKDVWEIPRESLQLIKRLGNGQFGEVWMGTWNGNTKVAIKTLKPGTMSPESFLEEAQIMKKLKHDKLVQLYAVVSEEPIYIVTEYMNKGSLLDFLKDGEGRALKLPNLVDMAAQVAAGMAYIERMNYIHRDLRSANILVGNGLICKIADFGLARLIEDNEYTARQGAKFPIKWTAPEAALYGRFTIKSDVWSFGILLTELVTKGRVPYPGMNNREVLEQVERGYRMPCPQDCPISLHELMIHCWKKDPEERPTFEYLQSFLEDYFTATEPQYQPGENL
Sequence of Tyrosine-protein kinase Yes (Homo sapiens) (P07947 2-543 limits assumed): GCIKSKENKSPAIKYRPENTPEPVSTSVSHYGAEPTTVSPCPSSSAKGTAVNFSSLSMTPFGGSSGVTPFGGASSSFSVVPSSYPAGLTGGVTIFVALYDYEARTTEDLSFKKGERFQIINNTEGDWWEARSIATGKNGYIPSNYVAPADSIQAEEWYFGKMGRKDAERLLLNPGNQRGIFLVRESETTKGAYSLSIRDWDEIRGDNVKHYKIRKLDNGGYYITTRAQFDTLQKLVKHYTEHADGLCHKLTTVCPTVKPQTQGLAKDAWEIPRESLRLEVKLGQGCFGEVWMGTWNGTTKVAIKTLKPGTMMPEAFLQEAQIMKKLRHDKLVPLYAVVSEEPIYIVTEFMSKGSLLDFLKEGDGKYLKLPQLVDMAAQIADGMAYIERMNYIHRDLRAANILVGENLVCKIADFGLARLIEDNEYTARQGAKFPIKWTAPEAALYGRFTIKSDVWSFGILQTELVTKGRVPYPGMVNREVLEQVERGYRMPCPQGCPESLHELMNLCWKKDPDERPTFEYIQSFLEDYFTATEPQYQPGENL

With `Cc1cc([C@@H](C)Nc2ccccc2C(=O)O)c2nc(N3CCOCC3)cc(=O)n2c1` [AZD-6482], in experiment [1], the % of control was 90%. The compound `CN(C)CCOc1ccc(-c2nc(-c3ccncc3)c(-c3ccc4c(c3)CC/C4=N\O)[nH]2)cc1` gave a % of control in [2] of 100%. In turn, `Nc1cnc(N2CCc3cc(S(=O)(=O)Nc4c(F)cc(Cl)cc4F)cc(N4CCCC4=O)c32)nc1` [TP-020n] came in with a % of control in experiment [3] of 100%.

In experiment [4], `N#Cc1cccc(-c2c[nH]c3ncnc(N4CCOCC4)c23)c1` registered a % of control of 40%. With `CC(=O)Nc1cccc(-n2c(=O)n(C3CC3)c(=O)c3c(Nc4ccc(I)cc4F)n(C)c(=O)c(C)c32)c1`, the % of control in [5] came to 104%. As to `Cc1cc(F)c(C(=O)Nc2cccc(-c3nncn3C(C)C)n2)cc1-n1cnc(C2CC2)c1`, the % of control in experiment [6] was found to be 100%. `CCC(=O)N1CCN(c2ccc(-n3c(=O)ccc4cnc5ccc(-c6cnc7ccccc7c6)cc5c43)cc2C(F)(F)F)CC1` yielded a % of control in [7] of 49%.

In turn, `CN(C(=O)c1cnn2cccnc12)c1cc2c(cc1N1CCOCC1)C(=O)N(C[C@@H](F)C(C)(C)O)C2` registered a dTM in experiment [8] of -0.6 K.

Compound `O[C@H]1CC[C@H](Nc2ncc3nc(Nc4c(F)cc(F)cc4F)n([C@H]4CCOC4)c3n2)CC1` displayed a % of control in [9] of 92%.

Source of the values: ChEMBL document CHEMBL5465560, “Selectivity Literature for EUbOPEN Chemogenomic Library” (2024).
